According to patent publication EP0108351A2, “Use of substituted malonic-acid derivatives as pesticides” (BAYER AG, priority 1982, dated 1984):

Legend:
Assay type in all cases: in vivo
[1] = system: Phorbia antiqua (im Boden); experiment: Limit concentration test / soil insects; details: compound mixed into soil; insects added after 24 hours, evaluated after 2 to 7 more days; concentration not given
Source text: Testinsekt: Phorbia antiqua (im Boden) Lösungsmittel: 3 Gewichtsteile Aceton Emulgator: 1 Gewichtsteil Alkylarylpolyglykolether
(§1) Zur Herstellung einer zweckmäßigen Wirkstoffzubereitung vermischt man 1 Gewichtsteil Wirkstoff mit der angegebenen Menge Lösungsmittel, gibt die angegebene Menge Emulgator zu und verdünnt das Konzentrat mit Wasser auf die gewünschte Konzentration.
Die Wirkstoffzubereitung wird innig mit dem Boden vermischt. Dabei spielt die Konzentration des Wirkstoffs in der Zubereitung praktisch keine Rolle, entscheidend ist allein die Wirkstoffgewichtsmenge pro Volumeneinheit Boden, welche in ppm (= mg/1) angegeben wird. Man füllt den Boden in Töpfe und läßt diese bei Raumtemperatur stehen.
Nach 24 Stunden werden die Testtiere in den behandelten Boden gegeben und nach weiteren 2 bis 7 Tagen wird der Wirkungsgrad des Wirkstoffs durch Auszählen der toten und lebenden Testinsekten in % bestimmt, Der Wirkungsgrad ist 100 %, wenn alle Testinsekten abgetötet worden sind, er ist O %, wenn noch genau so viele Testinsekten leben wie bei der unbehandelten Kontrolle.

[2] = system: Plutella maculipennis; experiment: Plutella test (cabbage leaves dipped, caterpillars placed on them); details: cabbage leaves (Brassica oleracea) dipped; concentration and time not stated; compared with prior art
Source text: Lösungsmittel: 3 Gewichtsteile Dimethylformamid Emulgator : -1 Gewichtsteil Alkylarylpolyglykolether
(§2) Zur Herstellung einer zweckmäßigen Wirkstoffzubereitung vermischt man 1 Gewichtsteil Wirkstoff mit der angegebenen Menge Lösungsmittel und der angegebenen Menge Emulgator und verdünnt das Konzentrat mit Wasser auf die gewünschte Konzentration.
Kohlblätter (Brassica oleracea) werden durch Tauchen in die Wirkstoffzubereitung der gewünschten Konzentration behandelt und mit Raupen der Kohlschabe (Plutella maculipennis) besetzt, solange die Blätter noch feucht sind.
Nach der gewünschten Zeit wird die Abtötung in % bestimmt. Dabei bedeutet 100 %, daß alle Raupen abgetötet wurden; 0 % bedeutet, daß keine Raupen abgetötet wurden.

[3] = system: Myzus pesicae; experiment: Limit concentration test / root-systemic action (Myzus); details: compound mixed into soil, cabbage; leaves infested after 7 days, evaluated after 2 more days; concentration not given
Source text: Testinsekt: Myzus pesicae Lösungsmittel: 3 Gewichtsteile Aceton Emulgator: 1 Gewichtsteil Alkylarylpolyglykolether
as §1
Die Wirkstoffzubereitung wird innig mit Boden vermischt. Dabei spielt die Konzentration des Wirkstoffs in der Zubereitung praktisch keine Rolle, entscheidend ist allein die Wirkstoffgewichtsmenge pro Volumeneinheit Boden, welche in ppm (= mg/1) angegeben wird. Man füllt den behandelten Boden in Töpfe und bepflanzt diese mit Kohl (Brassica oleracea). Der Wirkstoff kann so von den Pflanzenwurzeln aus dem Boden aufgenommen und in die Blätter transportiert werden.
Für den Nachweis des wurzelsystemischen Effektes werden nach 7 Tagen ausschließlich die Blätter mit den obengenannten Testtieren besetzt. Nach weiteren 2 Tagen erfolgt die Auswertung durch Zählen oder Schätzen der toten Tiere. Aus den Abtötungszahlen wird die wurzelsystemische Wirkung des Wirkstoffs abgeleitet. Sie ist 100 %, wenn alle Testtiere abgetötet sind und 0 %, wenn noch genau so viele Testinsekten leben wie bei der unbehandelten Kontrolle.

[4] = system: Tetranychus urticae; experiment: Tetranychus test (resistant), infested bean plants dipped; details: bean plants (Phaseolus vulgaris) dipped; all stages of mites; concentration and time not stated; compared with prior art
Source text: Lösungsmittel: 3 Gewichtsteile Dimethylformamid Emulgator: . 1 Gewichtsteil Alkylarylpolyglykolether
as §2
Bohnenpflanzen (Phaseolus vulgaris), die stark von allen Entwicklungsstadien der gemeinen Spinnmilbe oder Bohnenspinnmilbe (Tetranychus urticae) befallen sind, werden durch Tauchen in die Wirkstoffzubereitung der gewünschten Konzentration behandelt.
Nach der gewünschten Zeit wird die Abtötung in % bestimmt. Dabei bedeutet 100 %, daß alle Spinnmilben abgetötet wurden; 0 % bedeutet, daß keine Spinnmilben abgetötet wurden.

[5] = system: Lucilia cuprina res.-Larven; experiment: Test with Lucilia cuprina res. larvae; details: Wirkstoffkonzentration 1000 ppm, after 24 hours, read-out: Abtötung
Protocol: Emulgator: 35 Gewichtsteile Ethylenglkolmonomethylether 35 Gewichtsteile Nonylphenolpolyglykolether
Zur Herstellung einer zweckmäßigen Wirkstoffzubereitung vermischt man drei Gewichtsteile Wirkstott mit sieben Gewichtsteilen des oben angegebenen Lösungsmittel-Gemisches und verdünnt das so erhaltene Konzentrat mit Wasser auf die jeweils gewünschte Konzentration.
Etwa 20 Lucilia cuprina res.-Larven werden in ein Teströhrchen gebracht, welches ca. 1 cm^2 Pferdefleisch und 0,5 ml der Wirkstoffzubereitung enthält. Nach 24 Stunden wird der Abtötungsgrad bestimmt.

For COC(C(N)=O)(C(N)=O)c1ccc(Cl)c(Cl)c1 [Beispiel 1, 2-(3,4-Dichlorphenyl)-2-methoxy-malonsäurediamid], the “Wirkungsgrad gegenüber dem Stand der Technik” value [1] was “überlegene Wirkung gegenüber dem Stand der Technik”, the “Wirksamkeit gegenüber dem Stand der Technik (Abtötung in %)” value [2] was “überlegene Wirksamkeit gegenüber dem Stand der Technik” and the “wurzelsystemische Wirkung gegenüber dem Stand der Technik” value [3] was “überlegene Wirkung gegenüber dem Stand der Technik”. For the same molecule, the “Wirksamkeit gegenüber dem Stand der Technik (Abtötung in %)” value [4] was “überlegene Wirksamkeit gegenüber dem Stand der Technik”.
For NC(=O)C(OC(=O)c1ccccc1Cl)C(=O)Nc1ccc(Cl)c(Cl)c1 (centres unmarked) [Beispiel 2, 3,4-Dichlorphenyl-(2-chlorbenzoyloxy)-malonsäurediamid], the “Wirksamkeit gegenüber dem Stand der Technik (Abtötung in %)” value [2] was “überlegene Wirksamkeit gegenüber dem Stand der Technik”.
For NC(=O)C(OC(=O)c1ccccc1)(C(N)=O)c1ccc(Cl)c(Cl)c1 [Beispiel 3, 3,4-Dichlorphenylbenzoyloxymalonsäurediamid], the “Wirksamkeit gegenüber dem Stand der Technik (Abtötung in %)” value [2] was “überlegene Wirksamkeit gegenüber dem Stand der Technik”.
For CC(=O)OC(C(N)=O)(C(N)=O)c1ccc(Cl)c(Cl)c1 [Beispiel 4, 3,4-Dichlorphenylacetoxymalonsäurediamid], the “Wirksamkeit gegenüber dem Stand der Technik (Abtötung in %)” value [2] was “überlegene Wirksamkeit gegenüber dem Stand der Technik”.
For CNS(=O)(=O)OC(C(N)=O)(C(N)=O)c1ccc(Cl)c(Cl)c1 [Beispiel 5, 3,4-Dichlorphenylmethylsulfamoyloxymalonsäurediamid], the “Wirksamkeit gegenüber dem Stand der Technik (Abtötung in %)” value [2] was “überlegene Wirksamkeit gegenüber dem Stand der Technik” and the “Wirksamkeit gegenüber dem Stand der Technik (Abtötung in %)” value [4] was “überlegene Wirksamkeit gegenüber dem Stand der Technik”.
For CNC(=O)C(O)(C(N)=O)c1ccccc1 (centres unmarked) [Beispiel 27, Phenylhydroxymalonsäureamidmethylamid], the “wurzelsystemische Wirkung gegenüber dem Stand der Technik” value [3] was “überlegene Wirkung gegenüber dem Stand der Technik”.
NC(=O)C(O)(C(=O)[O-])c1ccccc1.[Na+] (centres unmarked) [Beispiel 33, Mononatriumsalzes des Phenylhydroxymalonsäuremonoamids] was tested, and the “wurzelsystemische Wirkung gegenüber dem Stand der Technik” value [3] was “überlegene Wirkung gegenüber dem Stand der Technik”.
NC(=O)C(OSC(F)(Cl)Cl)(C(N)=O)c1ccc(Cl)c(Cl)c1 [Beispiel 36, 3,4-Dichlorphenyl-dichlorfluormethylsulfenyloxy-malonsäurediamid] was tested, and the “Wirksamkeit gegenüber dem Stand der Technik (Abtötung in %)” value [2] was “überlegene Wirksamkeit gegenüber dem Stand der Technik” and the “Wirksamkeit gegenüber dem Stand der Technik (Abtötung in %)” value [4] was “überlegene Wirksamkeit gegenüber dem Stand der Technik”.
For NC(=O)C(O)(C(=O)NC=O)c1ccc(Cl)c(Cl)c1 (centres unmarked) [Beispiel 37, 3,4-Dichlorphenylhydroxymalonsäureamidformylamid], the “Wirksamkeit gegenüber dem Stand der Technik (Abtötung in %)” value [2] was “überlegene Wirksamkeit gegenüber dem Stand der Technik” and the “Wirksamkeit gegenüber dem Stand der Technik (Abtötung in %)” value [4] was “überlegene Wirksamkeit gegenüber dem Stand der Technik”.
CC(=O)NC(=O)C(O)(C(N)=O)c1ccccc1 (centres unmarked) [Beispiel 38, Phenylhydroxymalonsäureamidacetylamid] was tested, and the “Wirksamkeit gegenüber dem Stand der Technik (Abtötung in %)” value [2] was “überlegene Wirksamkeit gegenüber dem Stand der Technik”.
For CC(=O)NC(=O)C(O)(C(N)=O)c1ccc(Cl)c(Cl)c1 (centres unmarked) [Beispiel 38a, 3,4-Dichlorphenylhydroxymalonsäureamidacetylamid], the “Wirkungsgrad gegenüber dem Stand der Technik” value [1] was “überlegene Wirkung gegenüber dem Stand der Technik” and the “Wirksamkeit gegenüber dem Stand der Technik (Abtötung in %)” value [2] was “überlegene Wirksamkeit gegenüber dem Stand der Technik”.
In the case of CC(=O)NC(=O)C(OC(C)=O)(C(N)=O)c1ccc(Cl)c(Cl)c1 (centres unmarked) [Beispiel 39, 3,4-Dichlorphenylacetoxy-malonsäureamidacetylamid], the “Wirkungsgrad gegenüber dem Stand der Technik” value [1] is reported as “überlegene Wirkung gegenüber dem Stand der Technik”, the “Wirksamkeit gegenüber dem Stand der Technik (Abtötung in %)” value [2] is reported as “überlegene Wirksamkeit gegenüber dem Stand der Technik” and the “Wirksamkeit gegenüber dem Stand der Technik (Abtötung in %)” value [4] is reported as “überlegene Wirksamkeit gegenüber dem Stand der Technik”.
In the case of CC(=O)NC(=O)C(OC(C)=O)(C(=O)NC(C)=O)c1ccc(Cl)c(Cl)c1 [Beispiel 40, 3,4-Dichlorphenyl-acetoxy-malonsäurebisacetylamid], the “Wirkungsgrad gegenüber dem Stand der Technik” value [1] is reported as “überlegene Wirkung gegenüber dem Stand der Technik”, the “Wirksamkeit gegenüber dem Stand der Technik (Abtötung in %)” value [2] is reported as “überlegene Wirksamkeit gegenüber dem Stand der Technik” and the “Wirksamkeit gegenüber dem Stand der Technik (Abtötung in %)” value [4] is reported as “überlegene Wirksamkeit gegenüber dem Stand der Technik”.
With CC(=O)NC(=O)C(OC(=O)c1ccccc1)(C(=O)NC(C)=O)c1ccc(Cl)c(Cl)c1 [Beispiel 41, 3,4-Dichlorphenylbenzoyloxymalonsäurebisacetylamid] the “Wirksamkeit gegenüber dem Stand der Technik (Abtötung in %)” value [2] was “überlegene Wirksamkeit gegenüber dem Stand der Technik” and the “Wirksamkeit gegenüber dem Stand der Technik (Abtötung in %)” value [4] was “überlegene Wirksamkeit gegenüber dem Stand der Technik”.
In the case of C[Si](C)(C)OC(C(N)=O)(C(N)=O)c1ccc(Cl)c(Cl)c1 [Beispiel 47, 2-(3,4-Dichlorphenyl)-2-trimethylsilyloxy-malonsäurediamid], the “Wirkungsgrad gegenüber dem Stand der Technik” value [1] is reported as “überlegene Wirkung gegenüber dem Stand der Technik”, the mortality at 1000 µg/mL [5] is reported as 100% and the “Wirksamkeit gegenüber dem Stand der Technik (Abtötung in %)” value [2] is reported as “überlegene Wirksamkeit gegenüber dem Stand der Technik”. The “wurzelsystemische Wirkung gegenüber dem Stand der Technik” value [3] was “überlegene Wirkung gegenüber dem Stand der Technik” and the “Wirksamkeit gegenüber dem Stand der Technik (Abtötung in %)” value [4] was “überlegene Wirksamkeit gegenüber dem Stand der Technik”.
With C[Si](C)(C)NC(=O)C(O[Si](C)(C)C)(C(=O)N[Si](C)(C)C)c1ccc(Cl)c(Cl)c1 [Beispiel 48] the “Wirkungsgrad gegenüber dem Stand der Technik” value [1] was “überlegene Wirkung gegenüber dem Stand der Technik”, the “Wirksamkeit gegenüber dem Stand der Technik (Abtötung in %)” value [2] was “überlegene Wirksamkeit gegenüber dem Stand der Technik” and the “Wirksamkeit gegenüber dem Stand der Technik (Abtötung in %)” value [4] was “überlegene Wirksamkeit gegenüber dem Stand der Technik”.
In the case of CC(C)(C)NC(=O)C(O)(C(=O)NC(C)(C)C)c1ccccc1 [Beispiel 52, Phenylhydroxymalonsäure-bis-tert.-butylamid], the “wurzelsystemische Wirkung gegenüber dem Stand der Technik” value [3] is reported as “überlegene Wirkung gegenüber dem Stand der Technik”.
